From patent US8124364B2, “Biotin derivatives” (Glycorex Transplantation AB, priority 2000, dated 2012)

Columns and labels:
[1] = target: T1, Mitra Avidin-Agarose (Gallus gallus, UniProt P02701); test: Adsorption of biotin-trimer to avidin-agarose column (conditioning), concentration in recirculated fluid by ELISA; type: binding; conditions: 2 mL Mitra Avidin-Agarose; 5 mL of 1 mg/mL biotin-trimer in PBS recirculated at 1 mL/min for 20 minutes; end of recirculation
T1 construct: Mitra
Protocol: Two mL of Mitra Avidin-Agarose was packed into a column housing and was washed with >10 mL of PBS at a flow rate of 1 mL/min (1.6 cm/min). Five mL of a 1 mg/mL solution of biotin-trimer in PBS was recirculated through the avidin-column at 1 mL/min for 20 minutes. At end of the recirculation, a sample (0.5 mL) was drawn from the recirculated solution and analysed by an ELISA technique developed by Mitra Medical Technology AB. The biotin-avidin-agarose-column was washed with phosphate buffer at 1 mL/min for 20 minutes. By determining the concentration of biotin-trimer in the recirculated fluid, the amount of adsorbed biotin-trimer was estimated to about 1.9 mg i.e. 0.95 mg/mL of gel at the end of recirculation.
Biotin-trimer was adsorbed to 2 mL of Mitra Avidin-Agarose. […] If one biotin-trimer is bound per available binding site this would correspond to […] biotin-trimer/mL. As about 0.95 mg biotin-trimer was bound per mL avidin-agarose it can be assumed that the adsorbent was saturated with biotin-trimer.

[2] = target: avidin (Gallus gallus, UniProt P02701); test: Assessment of avidin adsorption on a column conditioned with biotin trimer, avidin by ELISA; type: binding
Chain of avidin (P02701 25-152): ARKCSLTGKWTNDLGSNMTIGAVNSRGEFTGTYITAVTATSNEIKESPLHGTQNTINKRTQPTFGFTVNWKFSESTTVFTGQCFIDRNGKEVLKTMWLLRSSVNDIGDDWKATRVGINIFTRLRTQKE
Protocol: An avidin-agarose column that was conditioned with a biotin trimer (i.e. FIG. 4, compound #2) was primed with phosphate buffer. Following this, 20 mL avidin-solution with 1 mg avidin/mL in PBS was recirculated through a biotin-avidin-agarose-column at 1.0 mL/min (1.6 cm/min). Three volumes of the avidin solution (3×20 mL) were processed and aliquots were drawn from the reservoir before start of the recirculation, then after 2 main and in 5 min intervals. The aliquots were analyzed for the quantity of avidin in them using an ELISA technique developed by Mitra Medical Technology AB. The dotted line represented the theoretically expected if no saturation effect has occurred. The column is saturated after about 40 min (2 vol.) when about 16 mg (80%) of, avidin has been bound. Signs of saturation was seen after about 20 min (1.0 vol.) when the experimental curve begin to deviate from the theoretical curve which occurred when about 10 mg of Avidin had been bound to the column.
After a 40 min recirculation, about 16 mg of avidin was bound, i.e. 8 mg/mL biotin-avidin-agarose. This corresponds to a 1:1 molar ration between the avidin coupled to agarose and the avidin adsorbed to the biotin-trimer. Initial saturation effects were seen after about one recirculated volume. After 2 volumes processed no further avidin was bound.

T1 sequence (P02701 25-152): as above

O=C(CCCCC1OCC2NC(=O)NC21)NCCOCCOCCNC(=O)c1cc(C(=O)NCCOCCOCCNC(=O)CCCCC2OCC3NC(=O)NC32)cc(C(=O)NCCOCCOCCNC(=O)CCCCC2OCC3NC(=O)NC32)c1 (stereo not drawn) [biotin-trimer]
amount of adsorbed biotin-trimer [1]: about 1.9 mg
time until signs of saturation ([2]; 1.0 vol.): about 20 min
avidin bound at saturation of the column ([2]; 20 mL of 1 mg avidin/mL in PBS recirculated at 1.0 mL/min, after about 40 min (2 vol.)): about 16 mg
avidin bound when signs of saturation were seen ([2]; after about 20 min (1.0 vol.), experimental curve begins to deviate from theoretical curve): about 10 mg
share of avidin bound at saturation ([2]; after about 40 min (2 vol.)): ~80%
time until the column is saturated ([2]; recirculation at 1.0 mL/min, 2 vol.): about 40 min
